# Entries after “also recorded” stand apart in the source; their conditions may differ.
# B1: 52SR4: high affinity anti-GCN4 (7P14P) scFv used as sCAR extracellular domain (protein)
# scFv: DAVVTQESALTSSPGETVTLTCRSSTGAVTTSNYASWVQEKPDHLFTGLIGGTNNRAPGVPARFSGSLIGDKAALTITGAQTEDEAIYFCVLWYSDHWVFGGGTKLTVLGGGGGSGGGGSGGGGSGGGGSDVQLQESGPGLVAPSQSLSITCTVSGFLLTDYGVNWVRQSPGKGLEWLGVIWGDGITDYNSALKSRLSVTKDNSKSQVFLKMNSLQSGDSARYYCVTGLFDYWGQGTTLTVSS
# Experiments:
# [1] = tested on: RS4;11 cells; assay: Inhibition of sCAR-T cell activity by free PNE peptide; assay type: cell-based; settings: excess soluble peptide with LCNT switch
# Source text: The non-binding mutated version of the PNE (PNE-X; bar farthest to the right) was, again, used as a control. […] Alanine mutated free peptide (PepX) has no effect. Only the cognate free peptide epitope inhibits cytotoxicity (see FIGS. 26D-F). FIG. 26E-F show live cell imaging (Incucyte, Essen).
# Specificity of sCAR-T cell activation is essential to switch-based control.
# One of the great advantages of the sCART cell system is that the activity can be controlled. This can be achieved by either dose escalation of the switches or by stopping switch dosing. In the event that the cessation of switch dosing is not an acute enough response to halt sCART cell activity, immunological synapses are disrupted by the administration of free peptide.
# Specificity of sCAR-T cell activation is a critical design consideration for switch-based control.
# [2] = tested on: RS4;11 (CD19 positive); assay type: cell-based, human
# Method: Activity was assessed against NALM-6 (CD19^+), RS4;11 (CD19^+), or RPMI-8226 (CD19^−) (Table 2). The activity of the IgG (FcNull) switch was assessed against RS4;11 (CD19^+), or K562 (CD19^−) (Table 2). The activity of the C-terminal switch was assessed against RS4;11 (CD19^+), or K562 (CD19^−) (Table 4).
# (§1) sCAR-T cells were co-cultured (96-well plate round bottom; 20-24h; 37° C.; 5% CO2) with RS4;11 (CD19^+) or K562 (CD19^−) cells at a ratio of 10 sCAR-T cells to 1 RS4;11/K562 cell (110,000 cells in total) in 100 uL of RPMI-1640 supplemented with 5% heat inactivated fetal calf serum (Thermo), 1% penicillin-streptomycin (Gibco), 1% L-Glutamine (Gibco), 1 mM sodium pyruvate (Gibco) and 1% non-essential amino acids (Gibco). After 24 hours, each plate was centrifuged at 400×g for 5 minutes at 4° C. To measure target cell lysis, the intracellular protein lactate dehydrogenase (LDH) was measured in the cytotoxicity assay supernatants from the co-cultured cells using the CytoTox 96® Non-Radioactive Cytotoxicity Assay kit (Promega). To measure the effector responses of the sCART cells in vitro, cytokine levels were measured in the cytotoxicity assay supernatants using the Cytometric Bead Array (CBA) Human Th1/Th2 Cytokine Kit II (BD). […]
# The GCN4 CAR design was therefore modified to contain the CD8 hinge region (used in CART-19), which has an extracellular CAR domain of approximately 80 Å, and an IgG4 hinge with an extracellular CAR domain of approximately 15-30 Å. An additional construct was developed where a mutation was introduced into the IgG4 hinge that allows for spontaneous disulphide bridge formation between receptor molecules (IgG4m). […] Briefly, activated PBMC were transduced with lentivirus (SEQ ID: 1) containing the anti-PNE CAR construct (SEQ ID: 180) with the CD8 (SEQ ID: 68), IgG4 (SEQ ID: 70) and IgG4m (SEQ ID: 71) hinge domains.
# Monovalent and bivalent combinations of these switches were expressed in mammalian protein expression systems (HEK293 or CHO cells) and purified using protein-G columns. Switches were used in cytotoxicity assays at a dose titration within the range of 10 nM to 0.0001 nM. The activity of each switch combination was tested in vitro in the General cytotoxicity assays where LDH release, cytokine production and sCART cell activation were compared (FIGS. 11A-11C).
# CAR-T or target cells were incubated with 1 pM to […] of switch in FACS buffer (PBS, 1% FCS, 2 mM EDTA) for 30 minutes at 4° C. before being washed twice and then incubated with the PE-conjugated goat-anti-human kappa antibody (1:100). Cells were washed two times and analyzed using the Accuri flow cytometer (BD). CAR-T cell activity was determined using the CytoTox 96® Non-Radioactive Cytotoxicity Assay (Promega). CAR-T cells were incubated with target cells in the presence of switch for 20-24 hours at 37° C. in complete RPMI with 5% FCS. At the end of the assay, 30 μL of cell free supernatant was added to 30 μL of the LDH assay reagent in a 96-well plate and incubated for 30 minutes at room temperature in the dark; 30 μL of stop solution was added before the plate was read at OD495.
# [3] = tested on: Nalm-6^Luc/GFP cells; assay: Nalm-6 Luc/GFP leukemia xenograft; assay type: in vivo; settings: for tumor burden (IVIS): 0.5 mg/kg I.V. every other day for 10 days; for tumor burden (IVIS), switch graft position comparison: 0.5 mg/kg every other day from day 6
# Method: NSG mice were inoculated with CD19^+ Nalm-6^GFP/Luc cells. Six days later, 40×10^6 sCAR-T cells were delivered IV and switch dosing commenced every other day at 0.5 mg/kg for 10 days. Tumor burden was followed by luminescence after injection of luciferin and imaged on an in vivo imaging system (IVIS; PerkinElmer, Waltham, Mass., USA).
# Asterisks indicate significance from LCNT Fab group. Data are represented as means±SEM, and statistical significance was calculated using the 2-way ANOVA with Bonferroni's post-test (B & E; shown for final time-point only) or by one-tailed student's t-test (C & F) where *=p<0.05, **=p<0.01 and ***=p<0.001.
# NSG mice were inoculated with Nalm-6^GFP/Luc as described in FIG. 28. […] A fourth group consisted of two cohorts (n=3) of mice injected I.V. with sCAR-T cells without (−) LCNT Fab switch. LCNT Fab dosing in the indicated group was carried out daily at 0.5 mg/kg after the initial T cell infusion. Luminescence was measured at 6 h and subsequently every 24 h as indicated. Cohorts were sacrificed for analysis immediately following IVIS imaging. […] Gray lines indicate tumor burden in PBS and sCAR-T cell—LCNT Fab controls. […] Data are represented as means±SEM, and statistical significance was calculated using the one-tailed student's t-test (C & D) where *=p<0.05, **=p<0.01 and ***=p<0.001.
# NSG mice were inoculated with Nalm6^GFP/Luc and six days later engrafted with short-dimeric sCAR-T cells as described in FIG. 29. […] Dosing was carried out for 15 d starting at day 6 (corresponding with sCAR-T cell infusion) as indicated by gray shading. Control groups CART-19 and PBS received no switch. The NS group received sCAR-T cells but no switch. Open circles denote the death of individual mice without evidence of tumor burden and may reflect GVHD. Triangles in PBS, NS and q.a.d. group indicate death due to increasing tumor burden. […] (19) indicates CART-19. […] (19) indicates CART-19. […] Triangles indicate the death of individual mice with significant tumor burden. The single mouse death in the 0.05 mg/kg group occurred while tumor burden was decreasing. […] Statistical significance was calculated using the one-tailed student's t-test (B, C & E) where *=p<0.05, **=p<0.01 and ***=p<0.001.
# The different sCAR designs were tested in a xenograft model harboring luciferized NALM-6 (CD19+, CD80−, CD86−) cells. 1 mg/kg monovalent switch “A” was administered along with sCAR cells. […] Optimized hinge improved response. Short hinge CARs have faster clearance. Short, dimeric hinge CARs have improved persistence. Tumor burden was visualized with IVIS imaging. Experiments are repeated with a humanized scFv and bivalent switches.
# Activity of the switchable CAR-T cell platform in vivo was evaluated via tumor regression in a Nalm-6^Luc/GFP leukemia xenograft model in immunodeficient NOD scid gamma (NSG) mice. These mice without treatment succumb to disease within 21 days. The impact of CAR hinge design on in vivo efficacy was determined using mice inoculated with Nalm-6^Luc/GFP, followed by I.V. injection of long, short, or short-dimeric sCAR-T cells 6 days later. The LCNT Fab was dosed I.V. (0.5 mg/kg) every other day for 10 days and tumor regression was followed by in vivo imaging (IVIS) of the luciferase signal from Nalm-6^Luc/GFP cells (FIG. 29A).
# The effect of switch grafting position on the control of tumor burden was determined. As with the previous model, short-dimeric CAR-T cells were injected 6 days after tumor inoculation and mice were treated every other day (starting at day 6) with 0.5 mg/kg LCNT, HCNT, NTBV, LCC1, or HCCT Fab switches (FIG. 29D).
# To determine the proliferation and localization of sCAR-T cell cytotoxicity during this time interval, mice were sorted into 5 cohorts per treatment regimen and analyzed at 8, 24, 48, 72, and 96 h after treatment with short-dimeric sCAR-T cells+LCNT Fab switch or with conventional CART-19 and no switch. […]
# [4] = tested on: Nalm-6^Luc/GFP cells; assay: Nalm-6 Luc/GFP leukemia xenograft; assay type: in vivo
# [5] = tested on: RS4;11 cells; assay: Cytokine release (CBA) in cytotoxicity co-culture; assay type: cell-based, human; settings: 1 nM switch
# Method: as §1
# CAR-T or target cells were incubated with 1 pM to […] of switch in FACS buffer (PBS, 1% FCS, 2 mM EDTA) for 30 minutes at 4° C. before being washed twice and then incubated with the PE-conjugated goat-anti-human kappa antibody (1:100). Cells were washed two times and analyzed using the Accuri flow cytometer (BD). CAR-T cell activity was determined using the CytoTox 96® Non-Radioactive Cytotoxicity Assay (Promega). […]
# [6] = target: GCN4 epitope (7P14P) (Saccharomyces cerevisiae, UniProt P03069); settings: GCN4 epitope (7P14P) NYHLENEVARLKKL; read-out: dissociation constant (Kd); cited from earlier work
# [7] = retreatment 0.5 mg/kg for 10 days
molecule,measurement,setting,value
NYHLENEVARLKKL (CAR binding region - yeast transcription factor GCN4) [PNE],effect of free peptide on sCAR-T cell activity,[1],fully inhibited
"anti-CD19 Fab LCNT: FMC63 anti-CD19 Fab, GCN4 peptide on N-terminus of light chain (SEQ ID 36 & 29)",EC50,[2],0.9 pM
same,increase in potency of cytotoxicity,[2],2.8 fold
same,increase in maximum target cell lysis,[2]; short-dimeric sCAR vs CD8-based long hinge,> 80%
same,"serum IL-2, INFγ, TNFα at 24 h vs CART-19",[3]; 0.05 mg/kg every day,significantly lower than CART-19
same,duration of sustained tumor regression after dosing had stopped,[3]; 0.5 mg/kg every day or every other day for 15 days,> 100 days
same,"T cell phenotype in peripheral blood (CD45RA, CD62L)","[3]; 0.05 and 0.5 mg/kg, vs […] group",significantly larger populations of CD45RA^−CD62L^+ central memory cells
same,T cell counts in peripheral blood,"[3]; day 17, short-dimeric sCAR-T cells, 0.5 mg/kg every other day",greatest T cell expansion
same,tumor burden (IVIS),[3]; long hinge (CD8) sCAR-T cells,minimal impact on disease
same,time to decrease tumor signal to levels equivalent to CART-19,[3]; [7],≤ 5 days
same,tumor-free time after final dose of second dosing period,[3]; [7],> 35 days
same,time of peak human IL-2 in peripheral blood,"[3]; sCAR-T + daily 0.5 mg/kg LCNT Fab, or CART-19 without switch",48 h
same,tumor burden (IVIS),[3]; short (IgG4) sCAR-T cells,significant decrease in tumor burden
same,tumor burden (IVIS),[3]; short-dimeric (IgG4m) sCAR-T cells,significant decrease in tumor burden
same,"tumor burden (IVIS), switch graft position comparison",[3]; short-dimeric sCAR-T cells,greatest reduction in tumor burden
same,time to limit of luminescence detection,"[3]; short-dimeric sCAR-T cells, daily 0.5 mg/kg",≤ 96 h
same,day on which tumor burden reached the limit of detection,[4]; 0.05 mg/kg every day for 10 d,≤ 16 days
same,day of tumor relapse,[4]; after 0.05 mg/kg every day for 10 d,30 days
"anti-CD19 Fab NTBV: FMC63 anti-CD19 Fab, peptide on N-terminus of light and heavy chain (SEQ ID 36 & 88)",cytokine production,[5]; CD8 hinge sCAR-T,induced the greatest cytokine production; also recorded: induced the greatest IL-2 production
same,increase in IL-2 production,[5]; CD8 sCAR-T cells,50%
same,"tumor burden (IVIS), switch graft position comparison",[3]; short-dimeric sCAR-T cells,greatest reduction in tumor burden
B1,Kd,[6],5.2 pM

# Source: US11091546B2, “Optimized PNE-based chimeric receptor T cell switches and uses thereof” (The Scripps Research Institute, priority 2015, dated 2021)
